Changes are numbered by the printed parent chain.
Key:
[1] = target: T1, Glycine receptor (alpha-1/beta) (Homo sapiens, UniProt P23415+P48167); experiment: Antagonist activity at recombinant human glycine receptor alpha 1 beta expressed in HEK293 cells assessed as inhibition of glycine-induced current at -50mV holding potential by whole cell patch-clamp method; type: cell-based
[2] = target: T1, Glycine receptor (alpha-1/beta); experiment: Antagonist activity at recombinant human glycine receptor alpha 1 beta expressed in human tsA201 cells assessed as inhibition of glycine-induced receptor activation after 30 mins by FLIPR membrane potential blue assay; type: cell-based
[3] = target: T2, Glycine receptor subunit alpha-1 (Homo sapiens, UniProt P23415); experiment: Antagonist activity at recombinant human glycine receptor alpha 1 expressed in HEK293 cells assessed as inhibition of glycine-induced current at -50 mV holding potential by whole cell patch-clamp method; type: cell-based
T2 sequence (P23415 whole entry): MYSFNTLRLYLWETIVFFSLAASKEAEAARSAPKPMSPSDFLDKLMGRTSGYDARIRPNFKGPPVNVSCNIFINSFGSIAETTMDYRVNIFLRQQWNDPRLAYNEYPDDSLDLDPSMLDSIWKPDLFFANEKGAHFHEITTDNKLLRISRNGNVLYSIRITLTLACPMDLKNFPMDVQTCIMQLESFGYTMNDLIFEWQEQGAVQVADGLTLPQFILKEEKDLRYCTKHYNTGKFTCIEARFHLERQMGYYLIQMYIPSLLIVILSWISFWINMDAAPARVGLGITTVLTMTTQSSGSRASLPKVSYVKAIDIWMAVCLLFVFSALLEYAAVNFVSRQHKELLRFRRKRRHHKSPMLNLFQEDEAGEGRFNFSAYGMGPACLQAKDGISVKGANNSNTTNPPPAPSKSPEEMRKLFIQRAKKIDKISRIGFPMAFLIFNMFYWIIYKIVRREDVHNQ

[4] = target: T2, Glycine receptor subunit alpha-1; experiment: Antagonist activity at recombinant human glycine receptor alpha 1 expressed in human tsA201 cells assessed as inhibition of glycine-induced receptor activation after 30 mins by FLIPR membrane potential blue assay; type: cell-based
[5] = target: T2, Glycine receptor subunit alpha-1; experiment: Displacement of [3H]strychnine from recombinant human glycine receptor alpha 1 expressed in HEK293 cell membranes after 30 mins by liquid scintillation counting method
[6] = target: T3, Glycine receptor subunit alpha-1 (Rattus norvegicus, UniProt P07727)
T3 sequence (P07727 whole entry): T2 sequence (P23415 whole entry) with L9F, E27D, E362D, A365G, S396N, P402A, Q457K
Description: Displacement of [3H]strychnine from glycine receptor alpha 1 in rat brain synaptic membranes

[7] = species on record: Homo sapiens; experiment: Selectivity ratio of IC50 for recombinant human glycine receptor alpha 1 beta expressed in human tsA201 cells to IC50 for recombinant human glycine receptor alpha 1 expressed in human tsA201 cells; type: cell-based

T1 sequence (P48167 whole entry, one chain of several): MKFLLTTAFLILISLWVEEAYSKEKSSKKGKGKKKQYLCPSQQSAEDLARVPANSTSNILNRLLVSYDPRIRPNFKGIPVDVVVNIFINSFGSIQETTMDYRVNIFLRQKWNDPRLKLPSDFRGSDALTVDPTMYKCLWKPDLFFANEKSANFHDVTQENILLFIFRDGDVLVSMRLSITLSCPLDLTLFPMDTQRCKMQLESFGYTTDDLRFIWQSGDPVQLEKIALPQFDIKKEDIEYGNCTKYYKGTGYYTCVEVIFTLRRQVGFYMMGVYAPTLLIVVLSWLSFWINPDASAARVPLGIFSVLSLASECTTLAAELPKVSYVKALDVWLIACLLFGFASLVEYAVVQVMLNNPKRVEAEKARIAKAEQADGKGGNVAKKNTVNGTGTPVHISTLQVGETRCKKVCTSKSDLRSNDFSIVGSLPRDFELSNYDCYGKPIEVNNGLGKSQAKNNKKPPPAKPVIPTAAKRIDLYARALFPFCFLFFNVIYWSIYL

Compound	IC50 [1]	IC50 [2]	IC50 [3]	IC50 ([4]; read-out: IC50)	Ki [5]	Ki [6]	IC50 ([4]; read-out: pIC50 (converted))	Ratio IC50 [7]
CCC[N+]12CC[C@@]34c5ccccc5N5C(=O)C[C@@H]6OCC=C(C1)[C@H](C[C@@H]32)[C@@H]6[C@H]54 (stereo partly specified)	6530 nM	13000 nM	4590 nM	10000 nM				
COC(=O)CO/N=C1/C(=O)N2c3ccccc3[C@@]34CCN5CC6=CCO[C@@H]1[C@@H]([C@H]23)[C@H]6C[C@H]54		670 nM		220 nM				
COC(=O)CCCCO/N=C1/C(=O)N2c3ccccc3[C@@]34CCN5CC6=CCO[C@@H]1[C@@H]([C@H]23)[C@H]6C[C@H]54		1500 nM		720 nM				
CCC(=O)Nc1ccc2c(c1)[C@@]13CCN4CC5=CCO[C@H]6CC(=O)N2[C@H]1[C@H]6[C@H]5C[C@H]43	311 nM	940 nM	201 nM	540 nM	67 nM			
O=C1C[C@@H]2OCC=C3CN4CC[C@]56c7ccccc7N1[C@H]5[C@H]2[C@H]3C[C@H]46 [STRYCHNINE]	58 nM	180 nM	51 nM	93 nM	23 nM	12 nM		
O=C1/C(=N/OCCc2ccccc2)[C@@H]2OCC=C3CN4CC[C@]56c7ccccc7N1[C@H]5[C@H]2[C@H]3C[C@H]46		780 nM		690 nM			708 nM	
CCCCO/N=C1/C(=O)N2c3ccccc3[C@@]34CCN5CC6=CCO[C@@H]1[C@@H]([C@H]23)[C@H]6C[C@H]54		880 nM		370 nM			380 nM	
Nc1ccc2c(c1)[C@@]13CCN4CC5=CCO[C@H]6CC(=O)N2[C@H]1[C@H]6[C@H]5C[C@H]43	97 nM	270 nM	76 nM	77 nM		18 nM		3 to 4
O=C1/C(=N/OCc2ccccc2)[C@@H]2OCC=C3CN4CC[C@]56c7ccccc7N1[C@H]5[C@H]2[C@H]3C[C@H]46		310 nM		170 nM				
C#CCO/N=C1/C(=O)N2c3ccccc3[C@@]34CCN5CC6=CCO[C@@H]1[C@@H]([C@H]23)[C@H]6C[C@H]54	43 nM	240 nM	59 nM	52 nM				
C=CCO/N=C1/C(=O)N2c3ccccc3[C@@]34CCN5CC6=CCO[C@@H]1[C@@H]([C@H]23)[C@H]6C[C@H]54	46 nM	150 nM	49 nM	95 nM	370 nM			
CCCCCO/N=C1/C(=O)N2c3ccccc3[C@@]34CCN5CC6=CCO[C@@H]1[C@@H]([C@H]23)[C@H]6C[C@H]54		710 nM		250 nM				3 to 4
O=C1C[C@@]23c4ccccc4N4C(=O)C[C@@H]5OCC=C6CN1[C@H]2C[C@@H]6[C@@H]5[C@H]43		9800 nM		6900 nM				
CCCO/N=C1/C(=O)N2c3ccccc3[C@@]34CCN5CC6=CCO[C@@H]1[C@@H]([C@H]23)[C@H]6C[C@H]54	116 nM	350 nM	109 nM	110 nM	241 nM			3 to 4
CC(C)CO/N=C1/C(=O)N2c3ccccc3[C@@]34CCN5CC6=CCO[C@@H]1[C@@H]([C@H]23)[C@H]6C[C@H]54		1100 nM		260 nM				3 to 4
CO/N=C1/C(=O)N2c3ccccc3[C@@]34CCN5CC6=CCO[C@@H]1[C@@H]([C@H]23)[C@H]6C[C@H]54	56 nM	210 nM	75 nM	100 nM	189 nM			
